Columns and labels:
Kir6.2*,C166S-GFP + SUR1 = Kir6.2*,C166S-GFP + SUR1 (Homo sapiens, UniProt Q14654, C166S); assay: Current inhibition in excised inside-out patches (patch-clamp fluorometry)
Kir6.2-GFP (no SUR1) = biological target: T1, Kir6.2-GFP (no SUR1) (Homo sapiens, UniProt Q14654); assay: Current inhibition in excised inside-out patches; format: biochemical
T1 construct: ANAP labelling is specific and only full-length Kir6.2 is expressed at the cell membrane; expressed in transfected cells; host or cells: HEK-293T
T1 sequence (Q14654 1-390): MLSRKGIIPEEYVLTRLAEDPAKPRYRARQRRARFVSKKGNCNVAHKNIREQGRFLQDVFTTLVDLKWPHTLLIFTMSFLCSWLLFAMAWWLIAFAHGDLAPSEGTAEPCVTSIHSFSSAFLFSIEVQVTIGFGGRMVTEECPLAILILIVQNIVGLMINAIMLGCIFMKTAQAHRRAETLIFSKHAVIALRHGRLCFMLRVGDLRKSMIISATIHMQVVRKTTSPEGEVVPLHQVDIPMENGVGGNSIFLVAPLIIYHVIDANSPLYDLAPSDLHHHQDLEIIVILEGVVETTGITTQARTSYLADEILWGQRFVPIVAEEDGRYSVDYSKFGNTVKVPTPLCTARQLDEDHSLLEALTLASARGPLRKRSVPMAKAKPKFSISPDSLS
Description: (§1) Currents were measured from patches from cells expressing KATP that were excised in the absence of Mg^2+. Under such conditions, nucleotides can bind to both sites on SUR1, but no activation occurs, allowing inhibitory currents to be measured in isolation ([Gribble et al., 1998]; [Ueda et al., 1999]; [Puljung et al., 2019]).

Kir6.2-GFP + SUR1 [1] = biological target: T2, Kir6.2-GFP + SUR1 (Homo sapiens, UniProt Q14654); assay: Current inhibition in excised inside-out patches (patch-clamp fluorometry); format: biochemical; set-up: full length, fully ANAP-labelled Kir6.2 protein was produced and successfully trafficked to the membrane in the presence of SUR1; expressed in transfected cells; host or cells: HEK-293T
Description: as §1
Currents were measured as described above.

Kir6.2-GFP + SUR1 [2] = biological target: T2, Kir6.2-GFP + SUR1; assay: Current inhibition in excised inside-out patches; format: biochemical; set-up: ANAP labelling is specific and only full-length Kir6.2 is expressed at the cell membrane; expressed in transfected cells; host or cells: HEK-293T
Description: as §1

wild-type Kir6.2 + SUR1 = system: wild-type Kir6.2 + SUR1; set-up: method as in Proks et al., 2010; Vedovato et al., 2015; conditions: MWC-type model, fits to published data; ref Proks et al., 2010; Vedovato et al., 2015; cited from earlier work
[3] = system: second nucleotide binding site of SUR1; set-up: method as in Puljung et al., 2019; conditions: ref Puljung et al., 2019, cited from earlier work
[4] = excised patches, Hill fit with 1-Imax set to 0, n = 3
[5] = binding to stimulatory second nucleotide binding site of SUR1

T2 sequence (Q09428 whole entry partner, one chain of several): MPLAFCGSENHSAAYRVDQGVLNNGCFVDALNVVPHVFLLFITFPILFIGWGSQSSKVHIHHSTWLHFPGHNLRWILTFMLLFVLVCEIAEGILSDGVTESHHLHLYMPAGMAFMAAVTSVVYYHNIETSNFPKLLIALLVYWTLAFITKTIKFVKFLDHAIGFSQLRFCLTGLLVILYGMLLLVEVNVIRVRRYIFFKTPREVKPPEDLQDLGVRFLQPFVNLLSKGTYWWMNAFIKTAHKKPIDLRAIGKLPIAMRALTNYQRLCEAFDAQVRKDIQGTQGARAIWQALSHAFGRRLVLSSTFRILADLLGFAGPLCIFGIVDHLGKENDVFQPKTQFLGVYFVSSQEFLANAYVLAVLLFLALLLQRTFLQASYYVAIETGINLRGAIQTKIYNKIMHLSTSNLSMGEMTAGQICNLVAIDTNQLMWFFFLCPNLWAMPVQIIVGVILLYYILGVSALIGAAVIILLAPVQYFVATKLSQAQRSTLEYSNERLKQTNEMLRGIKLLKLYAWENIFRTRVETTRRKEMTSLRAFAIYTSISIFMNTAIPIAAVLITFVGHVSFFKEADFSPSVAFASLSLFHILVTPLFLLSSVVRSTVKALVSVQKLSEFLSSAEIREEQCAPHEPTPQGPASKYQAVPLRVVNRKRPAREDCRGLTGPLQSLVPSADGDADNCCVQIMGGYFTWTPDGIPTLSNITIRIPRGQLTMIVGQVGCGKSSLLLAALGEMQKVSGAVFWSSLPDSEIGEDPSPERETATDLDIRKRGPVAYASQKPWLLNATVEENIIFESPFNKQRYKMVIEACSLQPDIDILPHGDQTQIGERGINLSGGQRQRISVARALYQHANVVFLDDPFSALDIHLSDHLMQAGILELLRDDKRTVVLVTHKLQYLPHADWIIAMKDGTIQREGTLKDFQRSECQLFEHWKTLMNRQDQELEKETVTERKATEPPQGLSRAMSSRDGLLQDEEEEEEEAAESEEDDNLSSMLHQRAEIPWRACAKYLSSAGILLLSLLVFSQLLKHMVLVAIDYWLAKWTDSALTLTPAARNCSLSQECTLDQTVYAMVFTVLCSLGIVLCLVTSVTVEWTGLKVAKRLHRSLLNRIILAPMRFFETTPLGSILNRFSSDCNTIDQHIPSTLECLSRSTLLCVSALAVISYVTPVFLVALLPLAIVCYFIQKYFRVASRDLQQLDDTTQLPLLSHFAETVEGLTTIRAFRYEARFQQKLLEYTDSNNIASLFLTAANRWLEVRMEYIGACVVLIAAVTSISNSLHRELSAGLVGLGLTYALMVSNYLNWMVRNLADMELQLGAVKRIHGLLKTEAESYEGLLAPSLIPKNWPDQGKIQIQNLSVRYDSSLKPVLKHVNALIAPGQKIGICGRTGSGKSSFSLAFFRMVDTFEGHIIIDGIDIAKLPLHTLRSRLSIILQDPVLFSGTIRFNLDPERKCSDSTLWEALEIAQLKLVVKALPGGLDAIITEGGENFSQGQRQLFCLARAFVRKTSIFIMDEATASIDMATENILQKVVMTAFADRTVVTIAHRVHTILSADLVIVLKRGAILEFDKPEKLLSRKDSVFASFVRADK
Kir6.2*,C166S-GFP + SUR1, sequence (Q14654 whole entry C166S): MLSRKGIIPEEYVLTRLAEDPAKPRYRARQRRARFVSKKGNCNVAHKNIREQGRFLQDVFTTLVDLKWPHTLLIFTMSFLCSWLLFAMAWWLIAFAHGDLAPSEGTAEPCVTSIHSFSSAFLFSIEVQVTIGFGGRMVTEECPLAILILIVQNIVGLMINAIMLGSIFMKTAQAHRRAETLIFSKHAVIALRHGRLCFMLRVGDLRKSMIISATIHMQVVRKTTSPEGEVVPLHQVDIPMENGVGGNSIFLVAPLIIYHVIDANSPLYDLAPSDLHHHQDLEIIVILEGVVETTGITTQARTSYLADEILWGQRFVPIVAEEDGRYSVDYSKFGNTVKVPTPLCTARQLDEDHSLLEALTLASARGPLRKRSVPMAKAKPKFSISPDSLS
Kir6.2*,C166S-GFP + SUR1, sequence (Q09428 whole entry partner): as the sequence (Q09428 whole entry partner, one chain of several) above

Compound: Nc1ncnc2c1ncn2[C@@H]1O[C@H](COP(=O)(O)OP(=O)(O)OP(=O)(O)O)[C@@H](O)[C@H]1O [ATP]
- current inhibition at 10 mM (Kir6.2*,C166S-GFP + SUR1; 10 mM ATP, excised patch): only partial inhibition
- h (Hill coefficient) current inhibition (Kir6.2-GFP (no SUR1); excised inside-out patches, no SUR1, Mg2+-free, Hill fit): 1.15
- h (Hill coefficient) current inhibition (Kir6.2-GFP + SUR1 [1]; excised inside-out patches, Mg2+-free, Hill fit): 1.42
- h (Hill coefficient) current inhibition (Kir6.2-GFP + SUR1 [2]; Mg2+-free, Hill fit): 1.28
- D (wild-type Kir6.2 + SUR1): 0.03
- KA (wild-type Kir6.2 + SUR1): 30000 M⁻¹

Compound: CCCCNC(=O)NS(=O)(=O)c1ccc(C)cc1 [tolbutamide]
- current inhibition by tolbutamide (Kir6.2-GFP (no SUR1); 100 µM tolbutamide, absence of SUR1, n = 5): not affected
- inhibition at 100 µM (Kir6.2-GFP + SUR1 [1]; 100 µM tolbutamide, excised inside-out patches, n = 4): 57.7%
- inhibition at 100 µM (Kir6.2-GFP + SUR1 [2]; 100 µM tolbutamide, n = 3): 46.5%

Compound: CCN(CC)CC [triethylamine]
- h (Hill coefficient) current inhibition (Kir6.2*,C166S-GFP + SUR1; [4]): 1.12
- h (Hill coefficient) current inhibition (Kir6.2-GFP + SUR1 [1]; [4]): 0.87
- IC50 (Kir6.2-GFP + SUR1 [1]; excised patches, Hill fit with 1-Imax set to 0, n = 3, read-out: IC50 current inhibition): 63.1 mM

Compound: MgTNP-ADP
- KA [3, 5]: 58000 M⁻¹
- Kd [3, 5]: 0.017 mM
- E (factor by which binding to SUR1 stabilised channel opening) ([3]; currents and binding measured in separate preparations): 2.2
